Results published in US20240294551A1 (AMGEN INC., priority 2022, published 2024).
Where two headings read alike, the source gives them in different places.

Columns and labels:
[1] = biological target: His-tagged KRAS G12D protein (Homo sapiens (Human), UniProt P01116, G12D); assay: KRAS G12D TR-FRET Assay; assay type: binding
In short: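 His-tagged KRAS G12D (diluted to 20 nM in pH 7.4 HEPES buffer with 10 mM MgCl2 and 10 μM GDP) was preincubated with titrated compound for 30 min at room temperature. Biotinylated KRPep-2d peptide (diluted to 20 nM) was then added for 1 h, and displacement was monitored by TR-FRET.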

[2] = biological target: GDP-bound KRAS protein (aa 1-169), containing both G12D and C118A amino acid substitutions (Homo sapiens (Human), UniProt P01116, C118A/G12D); assay: KRAS G12D Coupled Nucleotide Exchange Assay; assay type: biochemical
AsPC-1 cells = assay: AsPC-1 CTG Assay (CellTiter-Glo cell viability); assay type: cell-based, human; settings: Homo sapiens, ASPC1, 72 h, first value of the cell, read-out: G12D/C/V Cell Proliferation CTG (72 h) AsPC-1
Procedure: AsPC-1 and SW620 CTG Assay Protocols
AsPC-1 (human pancreatic adenocarcinoma; ATCC CRL-1682) or SW620 (human colon adenocarcinoma; ATCC CCL-227) cells were cultured in RPMI 1640 medium containing 10% fetal bovine serum and 1× penicillin/streptomycin/L-glutamine. Cells were seeded in 384-well plates at a density of 3.33E+04 cells/mL and incubated at 37° C., 5% CO2, overnight. Serially-diluted compound or DMSO was added to the cells, and plates were incubated at 37° C., 5% CO2 for 72 h. Cell viability was measured using a CellTiter-Glo® Luminescent Cell Viability Assay kit (Promega) according to the manufacturer's protocol. The luminescence signal of treated samples was normalized to DMSO control, and data were analyzed using a 4-parameter logistic model to calculate IC50 values.

[3] = test system: Phosphorylation of ERK1/2 in AsPC-1 cells; assay: Phospho-ERK1/2 MSD Assay; assay type: cell-based, human; settings: Homo sapiens, ASPC1, 2 h
In short: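 Read-out: MSD electrochemiluminescent detection of phosphorylated ERK1/2 in whole-cell lysates, fitted to a 4-parameter logistic curve for IC50. Prior to lysis, AsPC-1 cells (25,000 per well) received a 2 h compound dose-response at 37 °C.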

[4] = read-out: KRAS G12D Binding IC50
[5] = read-out: KRAS G12D Coupled Exchange IC50
[6] = read-out: 2 h p-ERK (AsPC-1 cells), IC50

Sequence of His-tagged KRAS G12D protein (P01116 other isoform, or with tags, fused parts or gaps G12D): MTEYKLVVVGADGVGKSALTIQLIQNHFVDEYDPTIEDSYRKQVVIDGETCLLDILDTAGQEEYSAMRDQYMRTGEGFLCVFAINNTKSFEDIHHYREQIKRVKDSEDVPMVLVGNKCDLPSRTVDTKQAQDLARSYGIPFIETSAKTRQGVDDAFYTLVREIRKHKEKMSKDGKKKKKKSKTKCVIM
Sequence of GDP-bound KRAS protein (aa 1-169), containing both G12D and C118A amino acid substitutions (P01116 other isoform, or with tags, fused parts or gaps G12D/C118A): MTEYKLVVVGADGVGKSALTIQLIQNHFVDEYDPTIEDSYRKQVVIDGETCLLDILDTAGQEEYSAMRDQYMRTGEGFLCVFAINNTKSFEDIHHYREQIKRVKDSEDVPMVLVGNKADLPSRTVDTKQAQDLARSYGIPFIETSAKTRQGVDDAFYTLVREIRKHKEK

SMILES	IC50 [1, 4]	IC50 [2, 5]	IC50 (AsPC-1 cells; AsPC-1, 72 h)	IC50 [3, 6]	IC50 ([1]; TR-FRET, read-out: KRAS G12D Binding)	IC50 ([2]; 2 hours compound pre-incubation, read-out: KRAS G12D Coupled Exchange)	IC50 (AsPC-1 cells; AsPC-1 cells (G12D), 72 h)	IC50 ([3]; read-out: 2 h p-ERK (AsPC-1 cells))
Cc1cc2[nH]ncc2c2c1CCCOC(=O)O[C@@H]1CCCCN(C1)c1nc(OC[C@@H]3CCCN3C)nc3c(F)c-2ncc13 [Example 206, (26R)-32-fluoro-18-methyl-4-(((2S)-1-methyl-2-pyrrolidinyl)methoxy)-23,25-dioxa-1,3,5,9,14,15-hexaazahexacyclo[24.4.1.1~6,10~.0~2,7~.0~11,19~.0~12,16~]dotriaconta-2,4,6,8,10(32),11,13,16,18-nonaen-24-one]	0.014 µM	0.009 µM	2.23 µM	0.211 µM				
O=S1(=O)CCCCc2c(Cl)cc3[nH]ncc3c2-c2ncc3c(nc(OC[C@@]45CCCN4C[C@H](F)C5)nc3c2F)N2CCC[C@H](C2)C1 [Example 145]	0.068 µM	0.063 µM	5 µM	4.67 µM				
Fc1c2ncc3c(nc(OC[C@@]45CCCN4C[C@H](F)C5)nc13)N1CCCCC(C1)c1noc(n1)CCCc1c(Cl)cc3[nH]ncc3c1-2 (mixture of isomers) [Example 382]					0.005 µM	0.003 µM	1.48 µM	0.0168 µM
Cc1cc2[nH]ncc2c2c1CCCOC(=O)O[C@H]1CN(CC[C@H]1C)c1nc(OC[C@@]34CCCN3C[C@H](F)C4)nc3c(F)c-2ncc13 [Example 94, (17R,18R)-30-fluoro-24-(((2R,7aS)-2-fluorotetrahydro-1H-pyrrolo[1,2-a]pyrrol-7a(5H)-yl)methoxy)-9,18-dimethyl-14,16-dioxa-5,6,21,23,25,29-hexaazahexacyclo[24.3.1.1~17,21~.0~2,10~.0~3,7~.0~22,27~]hentriaconta-1(30),2,4,7,9,22,24,26,28-nonaen-15-one]	0.01 µM	0.006 µM	1 µM	0.222 µM				
CN1CCC[C@H]1COc1nc2c3cnc(c(F)c3n1)-c1cc(O)cc3ccc(F)c(c13)CCOC(=O)O[C@]1(C)COCCN2C1 [Example 344, (16S)-23,32-difluoro-28-hydroxy-16-methyl-8-(((2S)-1-methyl-2-pyrrolidinyl)methoxy)-14,17,19-trioxa-3,7,9,11-tetraazahexacyclo[20.7.1.1~2,6~.1~11,16~.0~5,10~.0~26,30~]dotriaconta-1(30),2(32),3,5,7,9,22,24,26,28-decaen-18-one]	0.008 µM	0.003 µM	0.156 µM	0.0057 µM				
CC12CCCN(C1)c1nc(OC[C@@]34CCCN3C[C@H](F)C4)nc3c(F)c(ncc13)-c1cccc3ccc(F)c(c13)CCOC(=O)N2 (mixture of isomers) [Example 76]	0.015 µM	0.009 µM	1.71 µM	0.82 µM				

The remaining molecules from weak to strong by IC50 [1, 4], led by results:

IC50 [1, 4]	IC50 [2, 5]	IC50 (AsPC-1 cells; AsPC-1, 72 h)	IC50 [3, 6]	IC50 ([1]; TR-FRET, read-out: KRAS G12D Binding)	IC50 ([2]; 2 hours compound pre-incubation, read-out: KRAS G12D Coupled Exchange)	IC50 (AsPC-1 cells; AsPC-1 cells (G12D), 72 h)	IC50 ([3]; read-out: 2 h p-ERK (AsPC-1 cells))	SMILES
0.007 µM	0.003 µM	0.592 µM	0.0913 µM					Fc1c2ncc3c(nc(OC[C@@]45CCCN4C[C@H](F)C5)nc13)N1CCOC[C@H](C1)c1cnn(n1)CCCc1c(Cl)cc3[nH]ncc3c1-2 [Example 298, (1R)-10-chloro-33-fluoro-24-(((2R,7aS)-2-fluorotetrahydro-1H-pyrrolo[1,2-a]pyrrol-7a(5H)-yl)methoxy)-30-oxa-4,5,13,14,19,23,25,27,34-nonaazaheptacyclo[25.4.1.1~2,5~.1~18,22~.0~9,17~.0~12,16~.0~21,26~]tetratriaconta-2(34),3,9,11,14,16,18(33),19,21,23,25-undecaene]
0.007 µM	0.003 µM	1.19 µM	0.133 µM					O=C1N[C@@H]2CC[C@H](O)CN(C2)c2nc(OC[C@@]34CCCN3C[C@H](F)C4)nc3c(F)c(ncc23)-c2c(c(Cl)cc3[nH]ncc23)CCCO1 (racemic) [Example 282, (26R,29S)-18-chloro-32-fluoro-4-(((2R,7aS)-2-fluorotetrahydro-1H-pyrrolo[1,2-a]pyrrol-7a(5H)-yl)methoxy)-29-hydroxy-23-oxa-1,3,5,9,14,15,25-heptaazahexacyclo[24.4.1.1~6,10~.0~2,7~.0~11,19~.0~12,16~]dotriaconta-2,4,6(32),7,9,11,13,16,18-nonaen-24-one]
0.007 µM	0.005 µM	5 µM	1.86 µM					COc1c2ncc3c(nc(OC[C@@]45CCCN4C[C@H](F)C5)nc13)N1CCC[C@](C)(C1)NC(=O)CCCc1c(F)ccc3cc(O)cc-2c13 [Example 19, (15R)-22-Fluoro-8-(((2R,7aS)-2-fluorotetrahydro-1H-pyrrolo[1,2-a]pyrrol-7a(5H)-yl)methoxy)-27-hydroxy-31-methoxy-15-methyl-3,7,9,11,16-pentaazahexacyclo[19.7.1.1˜2,6˜.1˜11,15˜.0˜5,10˜.0˜25,29˜]hentriaconta-1(28),2(31),3,5,7,9,21,23,25(29),26-decaen-17-one]
0.006 µM	0.003 µM	0.778 µM	0.0531 µM					O=C1CCCCc2c(Cl)cc3[nH]ncc3c2-c2ncc3c(nc(OC[C@@]45CCCN4C[C@H](F)C5)nc3c2F)N2C[C@@H](O)C[C@H](C2)N1 (racemic) [Example 275, (17R,19S)-9-chloro-30-fluoro-24-(((2R,7aS)-2-fluorotetrahydro-1H-pyrrolo[1,2-a]pyrrol-7a(5H)-yl)methoxy)-19-hydroxy-5,6,16,21,23,25,29-heptaazahexacyclo[24.3.1.1~17,21~.0~2,10~.0~3,7~.0~22,27~]hentriaconta-1(30),2,4,7,9,22,24,26,28-nonaen-15-one]
0.005 µM	0.003 µM	0.422 µM	0.043 µM					Cc1cc2[nH]ncc2c2c1CCCCC(=O)O[C@]1(C)CCCN(C1)c1nc(OC[C@@]34CCCN3C[C@H](F)C4)nc3c(F)c-2ncc13 [Example 32, (17R)-30-fluoro-24-(((2R,7aS)-2-fluorotetrahydro-1H-pyrrolo[1,2-a]pyrrol-7a(5H)-yl)methoxy)-9,17-dimethyl-16-oxa-5,6,21,23,25,29-hexaazahexacyclo[24.3.1.1~17,21~.0~2,10~.0~3,7~.0~22,27~]hentriaconta-1(30),2,4,7,9,22,24,26,28-nonaen-15-one]
0.005 µM	0.003 µM	0.05 µM	0.029 µM					C[C@@H]1C[C@@H](COc2nc3c4cnc(c(F)c4n2)-c2c(c(Cl)cc4[nH]ncc24)CCCOC(=O)O[C@@H]2COCCN3C2)N(C)C1 [Example 328, (26S)-18-chloro-4-(((2S,4R)-1,4-dimethyl-2-pyrrolidinyl)methoxy)-32-fluoro-23,25,28-trioxa-1,3,5,9,14,15-hexaazahexacyclo[24.4.1.1~6,10~.0~2,7~.0~11,19~.0~12,16~]dotriaconta-2,4,6(32),7,9,11,13,16,18-nonaen-24-one]
0.004 µM	0.002 µM	5 µM	0.013 µM					Fc1c2ncc3c(nc(OC[C@@]45CCCN4C[C@H](F)C5)nc13)N1CCC[C@@H](COCCCCc3c(Cl)cc4[nH]ncc4c3-2)C1 [Example 138]
0.004 µM	0.003 µM	0.094 µM	0.0082 µM					O=C1OCCc2c(F)cc3[nH]ncc3c2-c2ncc3c(nc(OC[C@@]45CCCN4C[C@H](F)C5)nc3c2F)N2CCC[C@]3(C2)C[C@H](C3)O1 [Example 356, (1R,3S)-10,32-difluoro-24-(((2R,7aS)-2-fluorotetrahydro-1H-pyrrolo[1,2-a]pyrrol-7a(5H)-yl)methoxy)-4,6-dioxa-13,14,19,23,25,27-hexaazaheptacyclo[25.3.1.1~1,3~.1~18,22~.0~9,17~.0~12,16~.0~21,26~]tritriaconta-9,11,14,16,18(32),19,21,23,25-nonaen-5-one]
0.003 µM	0.001 µM	0.016 µM	0.0007 µM					C[C@@]12COCCN(C1)c1nc(OC[C@@]34CCCN3C[C@H](F)C4)nc3c(F)c(ncc13)-c1cc(O)cc3ccc(F)c(c13)CCOC(=O)O2 [Example 345, (16S)-23,32-difluoro-8-(((2R,7aS)-2-fluorotetrahydro-1H-pyrrolo[1,2-a]pyrrol-7a(5H)-yl)methoxy)-28-hydroxy-16-methyl-14,17,19-trioxa-3,7,9,11-tetraazahexacyclo[20.7.1.1~2,6~.1~11,16~.0~5,10~.0~26,30~]dotriaconta-1(30),2(32),3,5,7,9,22,24,26,28-decaen-18-one]
